The supplement of paper PMC9663587

Tests used:
YKL-5-124 = compound: C=CC(=O)Nc1ccc(C(=O)Nc2[nH]nc3c2CN(C(=O)N[C@H](CN(C)C)c2ccccc2)C3(C)C)cc1 [YKL-5-124]; assay: increase in dead-cell fraction, 72 h; higher = more death;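 further: breast cancer cell lines in 384-well plates, stained with Hoechst plus LIVE/DEAD far red dye and imaged, cells above an LDR intensity threshold counted dead, Hoechst-negative corpses included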
BSJ-03-123 = compound: CC(=O)c1c(C)c2cnc(Nc3ccc(N4CCN(CCOCCOCCOCCNC(=O)COc5cccc6c5C(=O)N(C5CCC(=O)NC5=O)C6=O)CC4)cn3)nc2n(C2CCCC2)c1=O [BSJ-03-123]; assay: as above
[1] = compound: CC(=O)c1c(C)c2cnc(Nc3ccc(N4CCNCC4)cn3)nc2n(C2CCCC2)c1=O; assay: as above
[2] = compound: CCN1CCN(Cc2ccc(Nc3ncc(F)c(-c4cc(F)c5nc(C)n(C(C)C)c5c4)n3)nc2)CC1; assay: as above
Neratinib/HKI272 [3] = compound: T1, CCOc1cc2ncc(C#N)c(Nc3ccc(OCc4ccccn4)c(Cl)c3)c2cc1NC(=O)/C=C/CN(C)C [Neratinib/HKI272]; assay: as above
[4] = compound: CCc1cnn2c(NCc3ccc[n+]([O-])c3)cc(N3CCCC[C@H]3CCO)nc12; assay: as above
LEE011/Ribociclib = compound: CN(C)C(=O)c1cc2cnc(Nc3ccc(N4CCNCC4)cn3)nc2n1C1CCCC1 [LEE011/Ribociclib]; assay: as above
THZ531 = compound: CN(C)C/C=C/C(=O)Nc1ccc(C(=O)N2CCC[C@@H](Nc3ncc(Cl)c(-c4c[nH]c5ccccc45)n3)C2)cc1 [THZ531]; assay: as above
THZ1 = compound: CN(C)C/C=C/C(=O)Nc1ccc(C(=O)Nc2cccc(Nc3ncc(Cl)c(-c4c[nH]c5ccccc45)n3)c2)cc1 [THZ1]; assay: as above
Flavopiridol [5] = compound: T2, CN1CC[C@H](c2c(O)cc(O)c3c(=O)cc(-c4ccccc4Cl)oc23)[C@H](O)C1 [Flavopiridol]; assay: as above
Neratinib/HKI272 [6] = compound: T1, Neratinib/HKI272; assay: GR value, 72 h; higher = faster growth (1 = untreated, <0 = killing);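 further: breast cancer and non-malignant breast epithelial lines, nine half-log doses, viable cells counted by Hoechst and LIVE/DEAD dye imaging versus time-zero plates and DMSO controls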
Flavopiridol [7] = compound: T2, Flavopiridol; assay: as above

## PDXHCI002
YKL-5-124; 0.001 µM
  increase in dead-cell fraction: 0.156
YKL-5-124; 0.003162 µM
  increase in dead-cell fraction: 0.144
YKL-5-124; 0.01 µM
  increase in dead-cell fraction: 0.185
YKL-5-124; 0.03162 µM
  increase in dead-cell fraction: 0.172
YKL-5-124; 0.1 µM
  increase in dead-cell fraction: 0.186
YKL-5-124; 0.3162 µM
  increase in dead-cell fraction: 0.234
YKL-5-124; 1 µM
  increase in dead-cell fraction: 0.186
YKL-5-124; 3.162 µM
  increase in dead-cell fraction: 0.255
YKL-5-124; 10 µM
  increase in dead-cell fraction: 0.182
BSJ-03-123; 0.001 µM
  increase in dead-cell fraction: -0.0304
BSJ-03-123; 0.003162 µM
  increase in dead-cell fraction: -0.0395
BSJ-03-123; 0.01 µM
  increase in dead-cell fraction: -0.0247
BSJ-03-123; 0.03162 µM
  increase in dead-cell fraction: 0.0116
BSJ-03-123; 0.1 µM
  increase in dead-cell fraction: 0.0131
BSJ-03-123; 0.3162 µM
  increase in dead-cell fraction: 0.02
BSJ-03-123; 1 µM
  increase in dead-cell fraction: 0.121
BSJ-03-123; 3.162 µM
  increase in dead-cell fraction: 0.127
BSJ-03-123; 10 µM
  increase in dead-cell fraction: 0.299
[1]; 0.0003162 µM
  increase in dead-cell fraction: -0.0007
[1]; 0.001 µM
  increase in dead-cell fraction: 0.0001
[1]; 0.003162 µM
  increase in dead-cell fraction: -0.0134
[1]; 0.01 µM
  increase in dead-cell fraction: -0.0207
[1]; 0.03162 µM
  increase in dead-cell fraction: -0.015
[1]; 0.1 µM
  increase in dead-cell fraction: -0.0124
[1]; 0.3162 µM
  increase in dead-cell fraction: -0.0203
[1]; 1 µM
  increase in dead-cell fraction: -0.0173
[1]; 3.162 µM
  increase in dead-cell fraction: -0.0092
[2]; 0.001 µM
  increase in dead-cell fraction: -0.0112
[2]; 0.003162 µM
  increase in dead-cell fraction: -0.0293
[2]; 0.01 µM
  increase in dead-cell fraction: -0.0317
[2]; 0.03162 µM
  increase in dead-cell fraction: -0.0292
[2]; 0.1 µM
  increase in dead-cell fraction: -0.0036
[2]; 0.3162 µM
  increase in dead-cell fraction: 0.0233
[2]; 1 µM
  increase in dead-cell fraction: 0.161
[2]; 3.162 µM
  increase in dead-cell fraction: 0.61
[2]; 10 µM
  increase in dead-cell fraction: 0.778
Neratinib/HKI272 [3]; 0.0003162 µM
  increase in dead-cell fraction: 0.0061
Neratinib/HKI272 [3]; 0.001 µM
  increase in dead-cell fraction: -0.001
Neratinib/HKI272 [3]; 0.003162 µM
  increase in dead-cell fraction: -0.0049
Neratinib/HKI272 [3]; 0.01 µM
  increase in dead-cell fraction: -0.0162
Neratinib/HKI272 [3]; 0.03162 µM
  increase in dead-cell fraction: 0.0001
Neratinib/HKI272 [3]; 0.1 µM
  increase in dead-cell fraction: -0.0122
Neratinib/HKI272 [3]; 0.3162 µM
  increase in dead-cell fraction: 0.0151
Neratinib/HKI272 [3]; 1 µM
  increase in dead-cell fraction: 0.0548
Neratinib/HKI272 [3]; 3.162 µM
  increase in dead-cell fraction: 0.31
[4]; 0.0001 µM
  increase in dead-cell fraction: -0.0076
[4]; 0.0003162 µM
  increase in dead-cell fraction: -0.0064
[4]; 0.001 µM
  increase in dead-cell fraction: -0.0055
[4]; 0.003162 µM
  increase in dead-cell fraction: -0.0087
[4]; 0.01 µM
  increase in dead-cell fraction: -0.0047
[4]; 0.03162 µM
  increase in dead-cell fraction: 0.451
[4]; 0.1 µM
  increase in dead-cell fraction: 0.504
[4]; 0.3162 µM
  increase in dead-cell fraction: 0.458
[4]; 1 µM
  increase in dead-cell fraction: 0.44
LEE011/Ribociclib; 0.001 µM
  increase in dead-cell fraction: -0.0323
LEE011/Ribociclib; 0.003162 µM
  increase in dead-cell fraction: -0.0237
LEE011/Ribociclib; 0.01 µM
  increase in dead-cell fraction: -0.0167
LEE011/Ribociclib; 0.03162 µM
  increase in dead-cell fraction: -0.0095
LEE011/Ribociclib; 0.1 µM
  increase in dead-cell fraction: -0.0015
LEE011/Ribociclib; 0.3162 µM
  increase in dead-cell fraction: -0.0029
LEE011/Ribociclib; 1 µM
  increase in dead-cell fraction: -0.0185
LEE011/Ribociclib; 3.162 µM
  increase in dead-cell fraction: 0.0196
LEE011/Ribociclib; 10 µM
  increase in dead-cell fraction: 0.0853
THZ531; 0.0001 µM
  increase in dead-cell fraction: -0.0252
THZ531; 0.0003162 µM
  increase in dead-cell fraction: -0.029
THZ531; 0.001 µM
  increase in dead-cell fraction: -0.0123
THZ531; 0.003162 µM
  increase in dead-cell fraction: 0.0054
THZ531; 0.01 µM
  increase in dead-cell fraction: 0.0146
THZ531; 0.03162 µM
  increase in dead-cell fraction: 0.0278
THZ531; 0.1 µM
  increase in dead-cell fraction: 0.241
THZ531; 0.3162 µM
  increase in dead-cell fraction: 0.379
THZ531; 1 µM
  increase in dead-cell fraction: 0.263
THZ1; 0.0001 µM
  increase in dead-cell fraction: -0.0106
THZ1; 0.0003162 µM
  increase in dead-cell fraction: -0.015
THZ1; 0.001 µM
  increase in dead-cell fraction: -0.01
THZ1; 0.003162 µM
  increase in dead-cell fraction: -0.0152
THZ1; 0.01 µM
  increase in dead-cell fraction: 0.0629
THZ1; 0.03162 µM
  increase in dead-cell fraction: 0.221
THZ1; 0.1 µM
  increase in dead-cell fraction: 0.272
THZ1; 0.3162 µM
  increase in dead-cell fraction: 0.269
THZ1; 1 µM
  increase in dead-cell fraction: 0.282
Flavopiridol [5]; 0.0001 µM
  increase in dead-cell fraction: -0.0222
Flavopiridol [5]; 0.0003162 µM
  increase in dead-cell fraction: 0.0027
Flavopiridol [5]; 0.001 µM
  increase in dead-cell fraction: -0.0057
Flavopiridol [5]; 0.003162 µM
  increase in dead-cell fraction: 0.0089
Flavopiridol [5]; 0.01 µM
  increase in dead-cell fraction: 0.0079
Flavopiridol [5]; 0.03162 µM
  increase in dead-cell fraction: 0
Flavopiridol [5]; 0.1 µM
  increase in dead-cell fraction: 0.0552
Flavopiridol [5]; 0.3162 µM
  increase in dead-cell fraction: 0.306
Flavopiridol [5]; 1 µM
  increase in dead-cell fraction: 0.294
Neratinib/HKI272 [6]; 0.0003162 µM
  GR value: 1.05 GR
Neratinib/HKI272 [6]; 0.001 µM
  GR value: 1 GR
Neratinib/HKI272 [6]; 0.003162 µM
  GR value: 1.02 GR
Neratinib/HKI272 [6]; 0.01 µM
  GR value: 0.829 GR
Neratinib/HKI272 [6]; 0.03162 µM
  GR value: 0.637 GR
Neratinib/HKI272 [6]; 0.1 µM
  GR value: 0.54 GR
Neratinib/HKI272 [6]; 0.3162 µM
  GR value: 0.378 GR
Neratinib/HKI272 [6]; 1 µM
  GR value: 0.19 GR
Neratinib/HKI272 [6]; 3.162 µM
  GR value: -0.143 GR
Flavopiridol [7]; 0.0001 µM
  GR value: 1.02 GR
Flavopiridol [7]; 0.0003162 µM
  GR value: 0.997 GR
Flavopiridol [7]; 0.001 µM
  GR value: 0.973 GR
Flavopiridol [7]; 0.003162 µM
  GR value: 0.997 GR
Flavopiridol [7]; 0.01 µM
  GR value: 0.999 GR
Flavopiridol [7]; 0.03162 µM
  GR value: 0.817 GR
Flavopiridol [7]; 0.1 µM
  GR value: 0.63 GR
Flavopiridol [7]; 0.3162 µM
  GR value: -0.0265 GR
Flavopiridol [7]; 1 µM
  GR value: -0.156 GR
